Measured values: ChEMBL document CHEMBL3352377, “Discovery of selective and orally bioavailable protein kinase Cθ (PKCθ) inhibitors from a fragment hit” (J Med Chem, 2015)

Experiments:
[1] = Plasma clearance in mouse at 3 mg/kg, iv or 10 mg/kg, po; type: ADME, organism-based
[2] = tested on: Canis familiaris; assay: Reduction in dP/dtmax in anesthetized dog cardiovascular model at plasma concentration of 7.7 uM in presence of hexamethonium; type: ADME, organism-based, Canis lupus familiaris; parameters: scale not given: the % may be the effect or the level left; settings: in vivo
[3] = Unbound intrinsic clearance in rat microsomes; type: ADME, Microsome
[4] = tested on: Canis familiaris; assay: Reduction in mean arterial pressure in anesthetized dog cardiovascular model at plasma concentration of 1.7 uM; type: ADME, organism-based, Canis lupus familiaris; settings: in vivo
[5] = tested on: Canis familiaris; assay: Reduction in mean arterial pressure in anesthetized dog cardiovascular model at plasma concentration of 6.9 uM; type: ADME, organism-based, Canis lupus familiaris; settings: in vivo
[6] = tested on: Canis familiaris; assay: Increase in dP/dtma in anesthetized dog cardiovascular model at plasma concentration of 7.7 uM; settings: in vivo
[7] = cells; settings: Homo sapiens, T-Blast, 24 h
Description: Inhibition of anti-CD3/anti-CD28 antibody-induced IL2 production in human T-Blast cells after 24 hrs

[8] = Unbound intrinsic clearance in mouse microsomes; type: ADME, Microsome
[9] = molecular target: Protein kinase C alpha type (Homo sapiens, UniProt P17252)
[10] = Half life in mouse at 3 mg/kg, iv or 10 mg/kg, po; type: ADME, organism-based; settings: in vivo
[11] = tested on: Canis familiaris; assay: Reduction in mean arterial pressure in anesthetized dog cardiovascular model at plasma concentration of 7.7 uM in presence of hexamethonium; type: ADME, organism-based, Canis lupus familiaris; settings: in vivo
[12] = molecular target: Protein kinase C gamma type (Homo sapiens, UniProt P05129); assay: Inhibition of human recombinant PKCgamma expressed in Sf21 cells using Bio-cdc peptide substrate and ATP after 60 mins by time-resolved fluorescence in-vitro kinase assay
[13] = molecular target: Voltage-gated inwardly rectifying potassium channel KCNH2 (Homo sapiens, UniProt Q12809); assay: Inhibition of human ERG
[14] = AUC in mouse at 3 mg/kg, iv or 10 mg/kg, po; type: ADME, organism-based; settings: plasma
[15] = molecular target: T1, Protein kinase C epsilon type (Homo sapiens, UniProt Q02156); assay: Inhibition of human recombinant PKCepsilon expressed in Sf21 cells using Bio-cdc peptide substrate and ATP after 60 mins by time-resolved fluorescence in-vitro kinase assay
T1 sequence (Q02156 whole entry): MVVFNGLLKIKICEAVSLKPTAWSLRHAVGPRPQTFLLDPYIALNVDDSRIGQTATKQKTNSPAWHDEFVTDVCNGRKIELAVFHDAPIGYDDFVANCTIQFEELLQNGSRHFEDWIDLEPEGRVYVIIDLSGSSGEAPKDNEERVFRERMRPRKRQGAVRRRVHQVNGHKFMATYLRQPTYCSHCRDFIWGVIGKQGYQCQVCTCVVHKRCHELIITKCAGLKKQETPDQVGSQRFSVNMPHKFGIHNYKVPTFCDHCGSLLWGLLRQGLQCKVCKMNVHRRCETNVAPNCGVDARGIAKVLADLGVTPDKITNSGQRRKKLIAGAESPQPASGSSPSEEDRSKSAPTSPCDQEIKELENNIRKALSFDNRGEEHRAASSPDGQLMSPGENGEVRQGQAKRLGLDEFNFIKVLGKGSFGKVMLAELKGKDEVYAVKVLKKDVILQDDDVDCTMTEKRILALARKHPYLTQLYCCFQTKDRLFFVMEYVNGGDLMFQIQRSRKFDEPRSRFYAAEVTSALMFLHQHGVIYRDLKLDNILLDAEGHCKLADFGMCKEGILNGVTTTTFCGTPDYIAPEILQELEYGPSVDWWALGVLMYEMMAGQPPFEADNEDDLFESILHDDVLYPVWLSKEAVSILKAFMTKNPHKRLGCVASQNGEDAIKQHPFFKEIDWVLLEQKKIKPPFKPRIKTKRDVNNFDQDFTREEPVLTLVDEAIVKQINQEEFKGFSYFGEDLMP

[16] = tested on: Canis familiaris; assay: Reduction in dP/dtma in anesthetized dog cardiovascular model at plasma concentration of 1.7 uM; type: ADME, organism-based, Canis lupus familiaris; parameters: scale not given: the % may be the effect or the level left; settings: in vivo
[17] = molecular target: Protein kinase C beta type (Homo sapiens, UniProt P05771); assay: Inhibition of human recombinant PKCbeta expressed in Sf21 cells using Bio-cdc peptide substrate and ATP after 60 mins by time-resolved fluorescence in-vitro kinase assay
[18] = AUC in rat at 1 mg/kg, iv or 3 mg/kg, po; type: ADME, organism-based; settings: plasma
[19] = tested on: Rattus norvegicus; assay: Reduction in mean arterial pressure in rat cardiovascular model at 3 to 30 mg/kg dosed over 30 mins infusions; settings: in vivo, iv, 0.5 h
[20] = Oral bioavailability in rat at 3 mg/kg; type: ADME, organism-based; settings: in vivo
[21] = tested on: Rattus norvegicus; assay: Effect on left ventricular dP/dt50 in rat cardiovascular model at 3 to 30 mg/kg dosed over 30 mins infusions; settings: in vivo, iv, 0.5 h
[22] = Inhibition of human recombinant […] expressed in Sf21 cells using Bio-cdc peptide substrate and ATP after 60 mins by time-resolved fluorescence in-vitro kinase assay
[23] = molecular target: Protein kinase C delta type (Homo sapiens, UniProt Q05655); assay: Inhibition of human recombinant PKCdelta expressed in Sf21 cells using Bio-cdc peptide substrate and ATP after 60 mins by time-resolved fluorescence in-vitro kinase assay
[24] = tested on: Canis familiaris; assay: Reduction in mean arterial pressure in anesthetized dog cardiovascular model in presence of hexamethonium; settings: in vivo
[25] = Oral bioavailability in mouse at 10 mg/kg; type: ADME, organism-based; settings: in vivo
[26] = Plasma clearance in rat at 1 mg/kg, iv or 3 mg/kg, po; type: ADME, organism-based
[27] = Cmax in rat at 1 mg/kg, iv or 3 mg/kg, po; type: ADME, organism-based; settings: in vivo
[28] = tested on: Rattus norvegicus; assay: Reduction in heart rate in rat cardiovascular model at 3 to 30 mg/kg dosed over 30 mins infusions; settings: in vivo, iv, 0.5 h
[29] = Permeability from apical to basolateral side in MDCK2-MDR1 cells at pH 7.4; type: ADME, cell-based, Canis lupus familiaris, MDCK-II; settings: dog, MDCK-MDR1, pH 7.4; read-out: permeability
[30] = Cmax in mouse at 3 mg/kg, iv or 10 mg/kg, po; type: ADME, organism-based; settings: in vivo
[31] = Unbound intrinsic clearance in human microsomes; type: ADME, Microsome
[32] = tested on: Canis familiaris; assay: Reduction in dP/dtmax in anesthetized dog cardiovascular model at plasma concentration of 2.2 uM in presence of hexamethonium; type: ADME, organism-based, Canis lupus familiaris; parameters: scale not given: the % may be the effect or the level left; settings: in vivo
[33] = Half life in rat at 1 mg/kg, iv or 3 mg/kg, po; type: ADME, organism-based; settings: in vivo
[34] = molecular target: T2, Protein kinase C zeta type (Homo sapiens, UniProt Q05513); assay: Inhibition of human recombinant PKCzeta expressed in Sf21 cells using Bio-cdc peptide substrate and ATP after 60 mins by time-resolved fluorescence in-vitro kinase assay
T2 sequence (Q05513 whole entry): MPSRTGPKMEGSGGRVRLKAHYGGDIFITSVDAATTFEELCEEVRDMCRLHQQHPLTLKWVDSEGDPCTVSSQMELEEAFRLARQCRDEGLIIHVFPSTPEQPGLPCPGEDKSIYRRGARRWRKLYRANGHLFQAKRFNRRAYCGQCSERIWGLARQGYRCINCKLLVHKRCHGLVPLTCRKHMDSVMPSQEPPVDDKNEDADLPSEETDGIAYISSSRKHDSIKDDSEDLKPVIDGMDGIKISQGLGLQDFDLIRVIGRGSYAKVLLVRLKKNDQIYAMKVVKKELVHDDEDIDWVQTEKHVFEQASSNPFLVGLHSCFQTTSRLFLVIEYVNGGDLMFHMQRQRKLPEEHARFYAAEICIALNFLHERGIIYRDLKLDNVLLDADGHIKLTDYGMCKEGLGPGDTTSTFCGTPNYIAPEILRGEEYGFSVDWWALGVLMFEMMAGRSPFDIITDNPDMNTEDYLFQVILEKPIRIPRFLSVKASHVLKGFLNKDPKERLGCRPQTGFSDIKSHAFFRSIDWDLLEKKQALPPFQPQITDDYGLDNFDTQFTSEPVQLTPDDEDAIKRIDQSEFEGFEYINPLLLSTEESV

[35] = tested on: Mus musculus; assay: Reduction in paw swelling in DBA/J mouse model of glucose 6-phosphate isomerase-induced athritis at 30 mg/kg, po dosed twice daily from day 1 to day 17; type: functional
[36] = Plasma concentration in concanavalin A-induced Balb/c mouse at 1 mg/kg, po dosed 2 hrs before concanavalin A challenge; type: ADME, organism-based; parameters: dose 1 mg/kg, route oral
[37] = Plasma concentration in concanavalin A-induced Balb/c mouse at 30 mg/kg, po dosed 2 hrs before concanavalin A challenge; type: ADME, organism-based; parameters: dose 30 mg/kg, route oral
[38] = Plasma concentration in concanavalin A-induced Balb/c mouse at 100 mg/kg, po dosed 2 hrs before concanavalin A challenge; type: ADME, organism-based; parameters: dose 100 mg/kg, route oral
[39] = tested on: Mus musculus; assay: Toxicity in DBA/J mouse model of glucose 6-phosphate isomerase-induced athritis at 100 mg/kg, po dosed twice daily for >10 days; type: organism-based; parameters: dose 100 mg/kg, route oral; settings: in vivo, 240 h
[40] = tested on: Mus musculus; assay: Reduction in paw swelling in DBA/J mouse model of glucose 6-phosphate isomerase-induced athritis at 10 mg/kg, po dosed twice daily from day 1 to day 17; type: functional
[41] = Plasma concentration in concanavalin A-induced Balb/c mouse at 10 mg/kg, po dosed 2 hrs before concanavalin A challenge; type: ADME, organism-based; parameters: dose 10 mg/kg, route oral
[42] = AUC (0 to t) in DBA/J mouse model of glucose 6-phosphate isomerase-induced athritis at 30 mg/kg, po dosed twice daily from day 1 to day 17; type: ADME, organism-based; parameters: dose 30 mg/kg, route oral; settings: in vivo
[43] = Plasma concentration in concanavalin A-induced Balb/c mouse at 3 mg/kg, po dosed 2 hrs before concanavalin A challenge; type: ADME, organism-based; parameters: dose 3 mg/kg, route oral
[44] = AUC (0 to t) in DBA/J mouse model of glucose 6-phosphate isomerase-induced athritis at 10 mg/kg, po dosed twice daily from day 1 to day 17; type: ADME, organism-based; parameters: dose 10 mg/kg, route oral; settings: in vivo
[45] = Fraction unbound in mouse plasma; type: ADME, cell-free
[46] = tested on: Rattus norvegicus; assay: Increase in left ventricular dP/dt50 in rat cardiovascular model at plasma concentration of 9.7 uM dosed over 30 mins infusions; settings: in vivo, iv, 0.5 h
[47] = tested on: Rattus norvegicus; assay: Increase in left ventricular dP/dt50 in rat cardiovascular model at plasma concentration of 5.8 uM dosed over 30 mins infusions; settings: in vivo, iv, 0.5 h
[48] = tested on: Rattus norvegicus; assay: Increase in left ventricular dP/dt50 in rat cardiovascular model at plasma concentration of 1.3 uM dosed over 30 mins infusions; settings: in vivo, iv, 0.5 h

Sequence of Voltage-gated inwardly rectifying potassium channel KCNH2 (Q12809 whole entry): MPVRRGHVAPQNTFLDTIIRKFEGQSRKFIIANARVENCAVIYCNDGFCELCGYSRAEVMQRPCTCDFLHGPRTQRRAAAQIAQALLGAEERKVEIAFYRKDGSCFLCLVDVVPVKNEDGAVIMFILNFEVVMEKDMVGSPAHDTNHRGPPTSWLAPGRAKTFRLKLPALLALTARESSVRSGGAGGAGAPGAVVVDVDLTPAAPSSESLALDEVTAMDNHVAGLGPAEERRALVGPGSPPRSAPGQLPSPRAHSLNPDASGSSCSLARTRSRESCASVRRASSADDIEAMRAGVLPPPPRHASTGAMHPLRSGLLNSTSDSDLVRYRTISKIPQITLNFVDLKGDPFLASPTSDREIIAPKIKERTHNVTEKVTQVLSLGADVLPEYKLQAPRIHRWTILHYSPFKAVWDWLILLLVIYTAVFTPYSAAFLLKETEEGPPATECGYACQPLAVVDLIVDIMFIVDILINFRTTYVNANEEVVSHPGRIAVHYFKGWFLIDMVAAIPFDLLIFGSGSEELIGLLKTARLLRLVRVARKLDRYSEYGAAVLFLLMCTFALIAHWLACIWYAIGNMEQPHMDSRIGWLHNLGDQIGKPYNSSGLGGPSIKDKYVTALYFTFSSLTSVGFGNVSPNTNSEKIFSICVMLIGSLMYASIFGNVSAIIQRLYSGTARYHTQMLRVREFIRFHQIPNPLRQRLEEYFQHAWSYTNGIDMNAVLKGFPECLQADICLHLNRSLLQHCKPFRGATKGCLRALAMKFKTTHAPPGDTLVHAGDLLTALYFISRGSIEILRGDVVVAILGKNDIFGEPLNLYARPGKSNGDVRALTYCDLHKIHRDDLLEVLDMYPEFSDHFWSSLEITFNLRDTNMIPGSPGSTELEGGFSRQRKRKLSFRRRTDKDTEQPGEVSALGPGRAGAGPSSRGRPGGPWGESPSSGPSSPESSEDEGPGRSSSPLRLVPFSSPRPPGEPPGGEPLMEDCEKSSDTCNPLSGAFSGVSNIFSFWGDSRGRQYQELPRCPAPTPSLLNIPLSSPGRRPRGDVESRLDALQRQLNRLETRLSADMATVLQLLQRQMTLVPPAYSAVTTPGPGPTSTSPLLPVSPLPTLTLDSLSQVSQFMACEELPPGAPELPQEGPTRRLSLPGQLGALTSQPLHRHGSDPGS
Sequence of Protein kinase C delta type (Q05655 whole entry): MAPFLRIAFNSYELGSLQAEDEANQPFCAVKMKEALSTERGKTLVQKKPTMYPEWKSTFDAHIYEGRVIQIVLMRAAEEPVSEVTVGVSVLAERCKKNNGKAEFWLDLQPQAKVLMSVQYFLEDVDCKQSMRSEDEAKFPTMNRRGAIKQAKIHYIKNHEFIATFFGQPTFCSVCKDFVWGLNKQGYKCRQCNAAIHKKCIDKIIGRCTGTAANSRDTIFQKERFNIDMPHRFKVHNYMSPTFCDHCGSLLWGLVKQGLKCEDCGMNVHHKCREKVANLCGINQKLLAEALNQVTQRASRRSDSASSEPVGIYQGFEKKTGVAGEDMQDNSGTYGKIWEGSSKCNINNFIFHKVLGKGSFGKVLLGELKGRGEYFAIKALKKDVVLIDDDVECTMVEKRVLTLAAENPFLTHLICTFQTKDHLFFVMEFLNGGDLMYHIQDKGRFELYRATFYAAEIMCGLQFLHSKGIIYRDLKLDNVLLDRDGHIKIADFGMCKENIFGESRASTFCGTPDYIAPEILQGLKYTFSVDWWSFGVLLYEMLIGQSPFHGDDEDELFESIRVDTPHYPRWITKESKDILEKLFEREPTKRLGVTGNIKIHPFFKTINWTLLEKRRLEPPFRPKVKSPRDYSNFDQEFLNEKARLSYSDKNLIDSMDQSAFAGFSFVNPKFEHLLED
Sequence of Protein kinase C beta type (P05771 whole entry): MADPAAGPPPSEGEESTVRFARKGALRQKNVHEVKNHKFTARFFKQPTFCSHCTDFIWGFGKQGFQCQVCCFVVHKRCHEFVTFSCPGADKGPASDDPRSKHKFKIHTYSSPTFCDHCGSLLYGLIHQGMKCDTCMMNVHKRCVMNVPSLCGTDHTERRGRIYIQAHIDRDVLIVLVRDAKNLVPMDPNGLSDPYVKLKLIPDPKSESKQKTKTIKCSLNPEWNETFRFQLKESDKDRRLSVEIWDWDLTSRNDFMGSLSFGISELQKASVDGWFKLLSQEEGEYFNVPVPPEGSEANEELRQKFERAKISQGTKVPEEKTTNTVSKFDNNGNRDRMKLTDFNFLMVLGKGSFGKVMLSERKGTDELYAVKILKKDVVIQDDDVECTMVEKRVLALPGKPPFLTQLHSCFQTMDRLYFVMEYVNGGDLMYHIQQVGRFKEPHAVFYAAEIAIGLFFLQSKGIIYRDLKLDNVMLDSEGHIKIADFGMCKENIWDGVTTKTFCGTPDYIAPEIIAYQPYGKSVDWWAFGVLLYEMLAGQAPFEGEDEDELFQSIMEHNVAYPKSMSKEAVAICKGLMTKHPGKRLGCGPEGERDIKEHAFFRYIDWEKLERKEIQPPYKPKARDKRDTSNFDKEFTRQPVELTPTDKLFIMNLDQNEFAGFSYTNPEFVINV

Row | SMILES | clearance [1] | CL free [3] | IC50 [7] | CL free [8] | IC50 [9] | half-life [10] | IC50 [13] | AUC [14] | AUC [18] | bioavailability [20] | bioavailability [25] | clearance [26] | Cmax [27] | Papp A→B [29] | Cmax [30] | CL free [31] | half-life [33] | also measured
1 | C[C@@H]1C(=O)NN=C2COc3cc(C(F)(F)F)c(NC4CNC4)cc3N21 | 96.7 mL/min/kg | < 78.3 mL/min/kg | 0.22 µM | < 138 mL/min/kg | 4.6 µM | 2.7 h | > 30 µM | 1730 ng·h/mL | 409 ng·h/mL | 28% | 85% | 35 mL/min/kg | 80 ng/mL | 0.44 ×10⁻⁶ cm/s | 342 ng/mL | 80 mL/min/kg | 5.5 h | Activity [2]: -7%; Activity [4]: 1 mmHg; Activity [5]: 3 mmHg; Activity [6]: 34%; Activity [11]: -12 mmHg; IC50 [12]: 7.8 µM; IC50 [15]: 0.14 µM; Activity [16]: 3%; IC50 [17]: 1.5 µM; Activity [19]: Toxic; Activity [21]: Non-toxic; IC50 [22]: 3.9 µM; IC50 [23]: 0.47 µM; Activity [24]: -3 mmHg; Activity [28]: Toxic; Activity [32]: -4%; IC50 [34]: 33 µM
2 | C[C@@H]1C(=O)NN=C2COc3cc(C(F)(F)F)c(NC4(C)CNC4)cc3N21 | 25 mL/min/kg | < 55 mL/min/kg | 0.12 µM | < 95 mL/min/kg | 1.7 µM | 3.1 h | > 30 µM | 9260 ng·h/mL | 782 ng·h/mL | 74% | 108% | 45 mL/min/kg | 160 ng/mL | 1.5 ×10⁻⁶ cm/s | 846 ng/mL | < 33 mL/min/kg | 4.7 h | inhibition in vivo at 30 mg/kg [35]: 100%; concentration at 2 h [36]: 37 nM; concentration at 2 h [37]: 900 nM; concentration at 2 h [38]: 2500 nM; Activity [39]: Toxic; inhibition in vivo at 10 mg/kg [40]: 62%; concentration at 2 h [41]: 310 nM; AUC(0-t) [42]: 15100 ng·h/mL; concentration at 2 h [43]: 110 nM; AUC(0-t) [44]: 4500 ng·h/mL; fraction unbound [45]: 0.27
3 | CN1CCN(c2nc(C3=C(c4c[nH]c5ccccc45)C(=O)NC3=O)c3ccccc3n2)CC1 [SOTRASTAURIN] |  |  |  |  |  |  |  |  |  |  |  |  |  |  |  |  |  | Activity [46]: 76%; Activity [47]: 35%; Activity [48]: 14%
